Results reported in US20070105780A1, “Therapeutic agent for iNOS generating illness” (priority 2005, published 2007).
“Also recorded” adds a separate entry of the source. Where a SMILES comes first, the peptide text is derived from it. [ ]: non-standard residue; d: D form. The star is where a group is joined. Sta = CC(C)C[C@H](N)[C@@H](O)CC(=O)O; Isovaleryl = CC(C)CC(=O)*; Nle = CCCC[C@H](N)C(=O)O

Tests used:
mouse model of sepsis = experiment: Lethality of particulate fractions produced in presence of protease inhibitors, mouse model of sepsis; assay type: in vivo; conditions: LPS primed mice, N=10 per group; E-64 vs no inhibitor P<0.0002, vs SBTI P<0.002
Procedure: It was reasoned that the conversion of soluble iNOS to particulate iNOS, and thereby to lethal iNOS, might be the result of the proteolytic cleavage of the intact protein molecule. It was hypothesized that decreasing the cleavage process might be beneficial to septic patients since the lethal form of iNOS would be reduced or eliminated. This hypothesis was tested using various protease inhibitors. The loss of lethality produced by specific protease inhibitors was assessed by testing the lethal effects exerted by the administration of the particulate iNOS produced in the presence and absence of protease inhibitors to LPS primed mice.
The three particulate fractions prepared in Example IX were tested for their lethality on groups of mice (5 female and 5 male mice per group, N=10) using our mouse model of sepsis. […] It is believed that treatment of septic patients with a protease inhibitor that decreases or stops the cleavage of iNOS in vivo could serve as an effective therapy for SIRS, sepsis, severe sepsis and septic shock.

[1] = test system: proteolytic cleavage of iNOS in induced DLD-1-5B2 cells; experiment: Inhibition of the cleavage of iNOS in situ in induced DLD-1-5B2 cells (Western blot of particulate fraction); assay type: cell-based, human; conditions: nine hours; for fragmentation (proteolytic cleavage) of iNOS in situ: 24-well plates, 20 μg/well, inhibitor added three hours after start of induction, Western blot FIG. 8; for fragmentation (proteolytic cleavage) of iNOS in situ, larger scale production: T-75 flasks, inhibitor added 3 hours after induction, Western blot FIG. 9
Procedure: DLD-1-5B2 cells, two days past confluence, were induced to express human iNOS using a mixture of recombinant human gamma interferon (rhIFNγ) at 8.33 ng/ml, recombinant human tumor necrosis factor-alpha (rhTNFα) at 3.3 ng/ml, and recombinant human interleukin-1β (rhIL-1β) at 3.3 ng/ml for 12-18 hours before being washed and harvested with trypsin/EDTA. The induced cells were washed three times with sterile PBS, transferred into sterile tubes in a small volume of sterile PBS, and stored frozen at −20° C. until processed for the isolation and fractionation of iNOS.
The frozen, induced DLD-1-5B2 cells were thawed in an ice water bath and lysed by two rapid freeze/thaw cycles using dry ice. The iNOS produced by the induced DLD-1-5B2 cells was then fractionated into a supernatant (soluble) fraction and a particulate fraction. The lysed cells were centrifuged at 16,000×g at 4° C. for 30 minutes to pellet the particulate fraction. The supernatant fraction that contained the soluble iNOS was transferred and stored at −20° C. or used fresh. The pellets were washed once, resuspended in a small volume of ice cold sterile PBS, and the resulting particulate fraction of iNOS was stored at −20° C. or used fresh.
The ability of six specific protease inhibitors to inhibit the cleavage of iNOS in situ was investigated using induced DLD-1-5B2 cells cultured in 24-well plates. Briefly, DLD-1-5B2 cells were cultured in 24-well plates instead of T-75 flasks, as described previously. Two days past confluence, the cells were induced with the same mixture of cytokines, but after three hours, the induction medium was removed from each well, the cells washed with pre-warmed sterile saline, and the medium replaced either with fresh DMEM, or with DMEM containing one of the six protease inhibitors being tested. Each inhibitor was assayed in triplicate at 20 μg/well. Nine hours later (12 hours after the start of the induction) the medium containing the inhibitors was removed, the cells were washed three times with ice-cold PBS, and the 24-well plates were placed on sheets of ice for 10 minutes to loosen the cells from the bottom of the plastic wells. The cells were blown off each well individually using a mechanical pipettor, sterile pipet tips, and ice-cold, sterile PBS. The cells were transferred to individual microfuge tubes on ice, collected by centrifugation, and washed twice with sterile, ice-cold PBS. No trypsin or other protease or EDTA was used during the harvesting or processing of the induced cells. The cells were lysed by 2 freeze/thaw cycles using dry ice and processed as previously described to isolate a supernatant fraction and a particulate fraction by centrifugation at 16,000×g. Both fractions were assayed in duplicate using the chemiluminescent EIA taught in U.S. patent application Ser. No. 09/628,585, and pools of the triplicate samples obtained for each protease inhibitor were analyzed by western blot. No statistically significant difference was found in the amount of iNOS contained in any of the supernatant fractions when compared to other supernatant fractions. Likewise, no statistically significant difference was found in the amount of iNOS contained in any of the particulate fractions when compared to other particulate fractions as measured by the EIA. Further, the distribution of iNOS between the supernatant and particulate fractions was similar for all the samples: the percent of the total iNOS in the supernatant fraction ranged from 55% to 65% and the percent of the total iNOS in the particulate fraction ranged from 35% to 45%. However, as is shown in FIG. 8, a difference in the form of the iNOS was found in the particulate fractions obtained from two of the protease inhibitors.
The quantity of particulate fraction produced was scaled up in T-75 culture flasks for both of these protease inhibitors in order to make enough material to be tested for their individual lethality in our mouse model of sepsis. […]

calpain = biological target: T1, calpain (Mus musculus, UniProt O35350); conditions: supernatant fraction of dexamethasone treated, induced cell lysate; cited from earlier work
T1 construct: enzymatic activity of calpain in the supernatant fraction of the dexamethasone treated, induced cell lysate
T1 sequence (O35350 1-713): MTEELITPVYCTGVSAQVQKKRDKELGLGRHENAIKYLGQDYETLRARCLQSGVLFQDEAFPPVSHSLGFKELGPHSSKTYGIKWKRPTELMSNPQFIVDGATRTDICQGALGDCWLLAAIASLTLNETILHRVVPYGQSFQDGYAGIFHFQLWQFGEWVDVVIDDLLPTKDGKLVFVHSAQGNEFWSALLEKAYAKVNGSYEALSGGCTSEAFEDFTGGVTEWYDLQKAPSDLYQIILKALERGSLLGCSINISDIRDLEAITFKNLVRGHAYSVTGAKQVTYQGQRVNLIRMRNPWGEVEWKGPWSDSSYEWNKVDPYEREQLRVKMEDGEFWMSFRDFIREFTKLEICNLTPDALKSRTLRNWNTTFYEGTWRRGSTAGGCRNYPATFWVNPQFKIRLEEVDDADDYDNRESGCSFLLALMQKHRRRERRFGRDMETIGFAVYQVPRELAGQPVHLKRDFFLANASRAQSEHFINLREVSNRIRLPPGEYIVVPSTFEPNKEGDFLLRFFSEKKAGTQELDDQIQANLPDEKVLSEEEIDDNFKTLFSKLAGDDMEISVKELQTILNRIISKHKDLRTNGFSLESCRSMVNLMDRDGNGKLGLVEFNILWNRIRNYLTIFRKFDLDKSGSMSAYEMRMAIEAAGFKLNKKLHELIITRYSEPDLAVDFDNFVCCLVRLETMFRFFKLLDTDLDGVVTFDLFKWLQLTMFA
T1 sequence (O88456 1-268 partner): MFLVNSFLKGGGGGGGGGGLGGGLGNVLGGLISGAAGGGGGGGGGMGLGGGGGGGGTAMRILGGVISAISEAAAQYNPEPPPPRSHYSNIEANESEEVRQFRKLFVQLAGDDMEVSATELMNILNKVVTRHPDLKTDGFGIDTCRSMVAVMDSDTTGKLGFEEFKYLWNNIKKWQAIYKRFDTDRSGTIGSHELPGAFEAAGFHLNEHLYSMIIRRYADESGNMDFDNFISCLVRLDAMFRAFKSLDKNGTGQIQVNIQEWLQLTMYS

Row | Molecule | lethality of the particulate iNOS fraction isolated from cells induced in the presence of the inhibitor (mouse model of sepsis) | fragmentation (proteolytic cleavage) of iNOS in situ [1] | cleavage of recombinant iNOS protein by calpain (calpain) | fragmentation (proteolytic cleavage) of iNOS in situ ([1]; listed as leupeptin) | fragmentation (proteolytic cleavage) of iNOS in situ, larger scale production [1]
1 | CC(C)CC(=O)N[C@H](C(=O)N[C@H](C(=O)N[C@@H](CC(C)C)[C@@H](O)CC(=O)N[C@@H](C)C(=O)N[C@@H](CC(C)C)[C@@H](O)CC(=O)O)C(C)C)C(C)C [pepstatin-A] (Isovaleryl-VV[Sta]A[Sta]-OH) | had no effect on the lethality of the particulate iNOS fraction | did not stop (inhibit) this cleavage process |  |  | 
2 | CC(=O)N[C@@H](CC(C)C)C(=O)N[C@@H](CC(C)C)C(=O)N[C@H](C=O)CCCNC(=N)N [Leupeptin, leupeptin] | decrease the lethality of the particulate iNOS fraction | stopped (inhibited) the fragmentation of iNOS in situ | inhibit such cleavage | inhibited the proteolytic cleavage of the intact iNOS protein | 
3 | aprotinin |  | did not stop (inhibit) this cleavage process |  |  | 
4 | CC(C)C[C@H](NC(=O)[C@H]1O[C@@H]1C(=O)O)C(=O)NCCCCN=C(N)N [E-64] | decrease the lethality of the particulate iNOS fraction; also recorded: statistically significant decrease in lethality | inhibited the proteolytic cleavage of the intact iNOS protein; also recorded: stopped (inhibited) the fragmentation of iNOS in situ | inhibit such cleavage |  | inhibiting the proteolytic cleavage of intact iNOS protein; also recorded: inhibit the fragmentation of iNOS in situ
5 | α1-protease inhibitor: protease inhibitor | had no effect on the lethality of the particulate iNOS fraction | did not stop (inhibit) this cleavage process |  |  | 
6 | CCCC[C@@H](C=O)NC(=O)[C@H](CC(C)C)NC(=O)[C@H](CC(C)C)NC(C)=O [Ac-Leu-Leu-NLeu-al] (Ac-Leu-Leu-[Nle]-aldehyde) |  |  | inhibit such cleavage |  | 
7 | soybean trypsin inhibitor: protease inhibitor (protein, UniProt P01070 25-205, looked up) Trypsin inhibitor A: DFVLDNEGNPLENGGTYYILSDITAFGGIRAAPTGNERCPLTVVQSRNELDKGIGTIISSPYRIRFIAEGHPLSLKFDSFAVIMLCVGIPTEWSVVEDLPEGPAVKIGENKDAMDGWFRLERVSDDEFNNYKLVFCPQQAEDDKCGDIGISIDHDDGTRRLVVSKNKPLVVQFQKLDKESL | had no effect on the lethality of the particulate iNOS fraction | did not stop (inhibit) this cleavage process |  |  | inability of soybean trypsin inhibitor (lane 2) to inhibit this cleavage process
